{"source": "patent US20250375444A1", "about": "“METHOD OF TREATING ALZHEIMER’S DISEASE” (AmyriAD Pharma, Inc., priority 2021, published 2025)", "key": {"[1]": {"system": "long-term potentiation (LTP)", "conditions": "cited from earlier work"}, "[2]": {"system": "extracellular ACh and dopamine concentrations"}, "[3]": {"system": "subjects having probable AD", "conditions": "cited from earlier work"}, "[4]": {"system": "ubiquitin-proteasome system pathway", "conditions": "cited from earlier work"}, "Aβ-like deposits": {"system": "Aβ-like deposits", "conditions": "in vivo; cited from earlier work"}, "AD subjects [5]": {"system": "AD subjects", "test": "Safety extension study: subjects started on memantine hydrochloride", "format": "in vivo, human", "conditions": "for Adverse Events during Memantine Co-administration: 401: 180 mg AD101", "protocol": "(§1) Subjects were titrated as follows: all subjects receive 60 mg once daily for the first month, 120 mg once daily for the second month and 180 mg once daily for the third month. Dose increases were dependent on the subject's tolerability of the previous dose."}, "protein kinase C": {"system": "protein kinase C", "conditions": "cited from earlier work"}, "[6]": {"system": "pro-ADAM10 and/or BACE protein", "conditions": "cited from earlier work"}, "[7]": {"system": "amyloid precursor protein", "conditions": "cited from earlier work"}, "AD subjects [8]": {"system": "AD subjects", "test": "12-week open-label multicenter safety extension study (Study 401) of AD101", "protocol": "as §1"}, "[9]": {"system": "nicotine-stimulated release of ACh"}, "[10]": {"system": "acetylcholine (ACh) levels", "conditions": "rodent brains; cited from earlier work"}, "[11]": {"system": "Ca^2+/calmodulin-dependent protein kinase II (CaMK II)", "conditions": "cited from earlier work"}, "[12]": {"conditions": "Total, unique subjects (N = 293)"}, "[13]": {"conditions": "Total, unique subjects (N = 293), denominator 293"}, "[14]": {"conditions": "all doses, safety population 293 subjects"}}, "note": "Entries after “also recorded” stand apart in the source; their conditions may differ. Like-named read-outs stand apart in the source and are kept apart here.", "data": [{"compound": "O=C1N=C2C=CC=CN2C12Cc1ccccc1C2", "note": "[AD101, 1′,3′-dihydro-2H-spiro[imidazo[1,2α]pyridine-3,2′-inden]-2-one]", "values": [{"measurement": "Long-term potentiation (LTP)", "setting": "[1]", "value": "enhancement"}, {"measurement": "Extracellular ACh concentrations", "setting": "[2]; cerebral cortex", "value": "increases"}, {"measurement": "Extracellular ACh concentrations", "setting": "[2]; hippocampus", "value": "increases"}, {"measurement": "Extracellular dopamine concentrations", "setting": "[2]; hippocampus", "value": "increases"}, {"measurement": "Dose response in primary outcome measures", "setting": "[3]; 10, 60 and 120 mg per day analyzed separately", "value": "no discernable dose response"}, {"measurement": "AD101-related safety concerns", "setting": "[3]; up to 120 mg QD, 12 weeks, with 10 mg donepezil hydrochloride QD", "value": "No significant AD101-related safety concerns were identified"}, {"measurement": "Activity of the ubiquitin-proteasome system pathway", "setting": "[4]", "value": "enhance the activity"}, {"measurement": "Accumulation of Aβ-like deposits", "setting": "Aβ-like deposits", "value": "decreases accumulation"}, {"measurement": "Laboratory or vitals sign abnormalities", "setting": "AD subjects [5]; 5 subjects taking memantine hydrochloride, AD101 up to 180 mg", "value": "no clinically significant laboratory or vitals sign abnormalities were observed"}, {"measurement": "Adverse Events during Memantine Co-administration", "setting": "AD subjects [5]; Subject 03-2003, memantine 5 mg BID ongoing", "value": "No new AEs."}, {"measurement": "Adverse Events during Memantine Co-administration", "setting": "AD subjects [5]; Subject 14-2108, memantine titrated 5 mg QD to 10 mg BID over 4 weeks", "value": "No new AEs."}, {"measurement": "Adverse Events during Memantine Co-administration", "setting": "AD subjects [5]; Subject 14-2178, memantine titrated 5 mg QD to 10 mg BID over 4 weeks", "value": "Sinus headache ×1 day,; also recorded: Dizzy/lightheaded over 18; also recorded: Vomiting ×1 day, occurred 2"}, {"measurement": "Adverse Events during Memantine Co-administration", "setting": "AD subjects [5]; Subject 18-2018, memantine 10 mg QD", "value": "Decreased appetite ×9 days; also recorded: UTI ×7 days began 30 days; also recorded: Confusion ×8 days, began 38; also recorded: Anxiety, ongoing at; also recorded: URI ×14 days began 30 days"}, {"measurement": "Adverse Events during Memantine Co-administration", "setting": "AD subjects [5]; Subject 18-2122, memantine 10 mg QD", "value": "No new AEs."}, {"measurement": "Activity of protein kinase C", "setting": "protein kinase C", "value": "increased activity"}, {"measurement": "Level of pro-ADAM10 and/or BACE protein", "setting": "[6]", "value": "decrease the level"}, {"measurement": "Cleavage of amyloid precursor protein", "setting": "[7]", "value": "induce cleavage"}, {"measurement": "Discontinued Early", "setting": "AD subjects [8]; 60 mg QD (N = 293)", "value": 16, "unit": "n"}, {"measurement": "Discontinued Early: Adverse Event", "setting": "AD subjects [8]; 60 mg QD (N = 293)", "value": 8, "unit": "n"}, {"measurement": "Discontinued Early: Adverse Event", "setting": "AD subjects [8]; 60 mg QD (N = 293), denominator 293", "value": "(2.7) %"}, {"measurement": "Discontinued Early", "setting": "AD subjects [8]; 120 mg QD (N = 276)", "value": 14, "unit": "n"}, {"measurement": "Discontinued Early: Adverse Event", "setting": "AD subjects [8]; 120 mg QD (N = 276)", "value": 4, "unit": "n"}, {"measurement": "Discontinued Early: Adverse Event", "setting": "AD subjects [8]; 120 mg QD (N = 276), denominator 293", "value": "(1.4) %"}, {"measurement": "AE: Fatigue", "setting": "AD subjects [8]; 180 mg (N = 243)", "value": 0, "unit": "n"}, {"measurement": "AE: Somnolence", "setting": "AD subjects [8]; 180 mg (N = 243)", "value": 0, "unit": "n"}, {"measurement": "Discontinued Early", "setting": "AD subjects [8]; 180 mg QD (N = 243)", "value": 6, "unit": "n"}, {"measurement": "Discontinued Early: Adverse Event", "setting": "AD subjects [8]; 180 mg QD (N = 243)", "value": 5, "unit": "n"}, {"measurement": "Discontinued Early: Adverse Event", "setting": "AD subjects [8]; 180 mg QD (N = 243), denominator 293", "value": "(1.7) %"}, {"measurement": "Safety of 180 mg QD versus lower doses", "setting": "AD subjects [8]; 180 mg QD vs 60 mg QD and 120 mg QD", "value": "at least as safe as"}, {"measurement": "New safety or tolerability issues", "setting": "AD subjects [8]; 3-month open-label extension, 60 to 180 mg QD", "value": "No new safety or tolerability issues were identified"}, {"measurement": "Pattern of nature or frequency of specific AE related to dose", "setting": "AD subjects [8]; 60, 120, 180 mg", "value": "There does not appear to be any pattern related to AD101 dose"}, {"measurement": "Relationship of SAEs to study drug (investigator)", "setting": "AD subjects [8]; SAE #00036: syncope, person on 180 mg", "value": "unrelated to study drug with the exception of SAE #00036"}, {"measurement": "Discontinued Early", "setting": "AD subjects [8]; [12]", "value": 36, "unit": "n"}, {"measurement": "Discontinued Early: Adverse Event", "setting": "AD subjects [8]; [12]", "value": 17, "unit": "n"}, {"measurement": "Subjects with any AE", "setting": "AD subjects [8]; [12]", "value": 51.2, "unit": "%"}, {"measurement": "Discontinued Early", "setting": "AD subjects [8]; [13]", "value": "(12.3) %"}, {"measurement": "Discontinued Early: Adverse Event", "setting": "AD subjects [8]; [13]", "value": "(5.8) %"}, {"measurement": "Serious Adverse Events (SAEs), number of events", "setting": "AD subjects [8]; [14]", "value": 17}, {"measurement": "Subjects with Serious Adverse Events", "setting": "AD subjects [8]; [14]", "value": 17, "unit": "subjects"}, {"measurement": "SAE Event (individual subject)", "setting": "AD subjects [8]; dose at time of event 60 mg", "value": "Asthma; also recorded: Chest Pain; also recorded: Fractured Wrist; also recorded: Seizure; also recorded: Syncope (vasovagal); also recorded: Vestibular neuronitis; also recorded: GI bleed 2°to"}, {"measurement": "SAE Event (individual subject)", "setting": "AD subjects [8]; dose at time of event 120 mg", "value": "Lightheaded; also recorded: Fractured right; also recorded: Fx Left"}, {"measurement": "SAE Event (individual subject)", "setting": "AD subjects [8]; dose at time of event 180 mg", "value": "Syncope; also recorded: Fractured; also recorded: Chest Pain; also recorded: Pneumonia/Pulmonary"}, {"measurement": "SAE Event (individual subject)", "setting": "AD subjects [8]; dose at time of event N/A (10 days after completing 401)", "value": "Multiple CVAs"}, {"measurement": "Death", "setting": "AD subjects [8]; multiple cerebral vascular accidents, deemed unrelated, 10 days post-study after 60, 120 and 180 mg for 4 weeks each", "value": 1}, {"measurement": "SAEs by dose at time of event", "setting": "AD subjects [8]; on 60 mg AD101", "value": 7}, {"measurement": "SAEs by dose at time of event", "setting": "AD subjects [8]; on 120 mg AD101", "value": 5}, {"measurement": "SAEs by dose at time of event", "setting": "AD subjects [8]; on 180 mg AD101", "value": 4}, {"measurement": "Nicotine-stimulated release of ACh", "setting": "[9]", "value": "potentiates"}, {"measurement": "Acetylcholine (ACh) levels", "setting": "[10]", "value": "increase"}, {"measurement": "Activity of CaMK II", "setting": "[11]", "value": "increased activity"}]}]}
